PubChem BioAssay AID1552 (Sanford-Burnham Center for Chemical Genomics, 2009)
Activity calls are given as the source filed them. The rule behind the calls is not given here.

Each compound was assayed against Ubiquitin-conjugating enzyme E2 N (Homo sapiens) (UniProt P61088) (assay: UBE2N binders by NMR, biophysical, purified protein (AID 1552)). Settings: NMR binding to purified UBE2N.
Sequence of Ubiquitin-conjugating enzyme E2 N (Homo sapiens) (P61088 whole entry, looked up): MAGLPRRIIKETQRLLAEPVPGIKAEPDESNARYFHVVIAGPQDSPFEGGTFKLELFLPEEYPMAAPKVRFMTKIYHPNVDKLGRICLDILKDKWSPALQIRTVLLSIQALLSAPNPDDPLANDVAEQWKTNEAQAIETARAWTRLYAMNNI
`Cc1cc(=O)n2[nH]c(COc3ccccc3)nc2n1` was tested, and the Kd was > 4 mM (inactive).
For `O=c1ccn([C@@H]2O[C@H](COP(=O)(O)OP(=O)(O)OP(=O)(O)O)[C@@H](O)[C@H]2O)c(=O)[nH]1`, the Kd was > 4 mM (inactive).
In the case of `Cc1cc2c(=O)n(C)c(SCC(N)=O)nc2s1`, the Kd is reported as > 4 mM (inactive).
With `CN1CCC(NC(=O)C2CCCO2)CC1` (stereo unspecified) the Kd was > 4 mM (inactive).
For `NCc1cn2ccccc2n1`, the Kd was > 4 mM (inactive).
For `Cc1cc(C)n2c(SCc3c(C)noc3C)nnc2n1`, the Kd was > 4 mM (inactive).
`CC(C)=NNC(=O)C(=O)NC(C)(C)C` was tested, and the Kd was > 4 mM (inactive).
With `O=C(c1nc2ccccc2s1)N1CCSCC1` the Kd was > 4 mM (inactive).
With `C=CCNC(=O)c1nn2cccnc2c1Cl` the Kd was > 4 mM (inactive).
`NC(=O)CSc1nc2ccccc2c(=O)[nH]1` was tested, and the Kd was > 4 mM (inactive).
With `NC(=O)Cn1cnc2ccccc21` the Kd was > 4 mM (inactive).
In the case of `CN=C1SC(CC(=O)Nc2ccc(O)cc2)C(=O)N1C` (stereo unspecified), the Kd is reported as > 4 mM (inactive).
`NCc1ccc(CN2CCOCC2)cc1` was tested, and the Kd was > 4 mM (inactive).
For `NCCN=C1NS(=O)(=O)c2ccccc21`, the Kd was > 4 mM (inactive).
`CC(=O)Nc1cnn(Cc2ccc(Br)cc2)c1` was tested, and the Kd was > 4 mM (inactive).
In the case of `Cc1cc(C)nc(Nc2n[nH]c(Cc3ccccc3)n2)n1`, the Kd is reported as > 4 mM (inactive).
With `CCC(C)C(=O)OC1[C@@H]2CC3=C4CC(=O)O[C@@H](c5ccoc5)[C@]4(C)CCC3C(C)(C2=O)[C@@H](CC(=O)OC)C1(C)C` (stereo partly specified) the Kd was > 4 mM (inactive).
For `Cn1cc(Cl)c(C(=O)NC2CCCCCC2)n1`, the Kd was > 4 mM (inactive).
In the case of `S=C(Nc1ccccc1)Nc1nncs1`, the Kd is reported as > 4 mM (inactive).
In the case of `NC1=NC(=O)/C(=C\c2ccccc2)S1`, the Kd is reported as > 4 mM (inactive).
`O=C(Nc1cnccn1)c1cccnc1` was tested, and the Kd was > 4 mM (inactive).
For `CCOc1ccc(Cl)cc1S(=O)(=O)N1CCCC1`, the Kd was > 4 mM (inactive).
In the case of `O=S(=O)(Cc1ccccc1)N1CCCCCC1`, the Kd is reported as > 4 mM (inactive).
For `COc1ccc(-c2nc3nc(C)cc(C)n3n2)cc1`, the Kd was > 4 mM (inactive).
`CC(C)CCCC(C)[C@H]1CCC2C3CC=C4C[C@@H](O)CC[C@]4(C)C3CC[C@@]21C` (stereo partly specified) was tested, and the Kd was > 4 mM (inactive).
With `OCC1CCCCCN1` (stereo unspecified) the Kd was > 4 mM (inactive).
In the case of `CN(C(=O)NC1CCS(=O)(=O)C1)C1CCCCC1` (stereo unspecified), the Kd is reported as > 4 mM (inactive).
`NC(=O)C(=O)NCc1ccc(Cl)cc1` was tested, and the Kd was > 4 mM (inactive).
In the case of `COc1ccc(NC(=O)CCCC(=O)O)c(OC)c1`, the Kd is reported as > 4 mM (inactive).
`CC(=O)Nc1ccc(-c2nc(C)c(C(C)=O)n2O)cc1` was tested, and the Kd was > 4 mM (inactive).
With `Cc1noc(C)c1C(=O)Nc1ccccn1` the Kd was > 4 mM (inactive).
`CCC(=O)n1nc(-c2ccco2)nc1N` was tested, and the Kd was > 4 mM (inactive).
`CC1=C/C(=C\c2c(O)[nH]c(=O)[nH]c2=O)C(C)=N1` was tested, and the Kd was > 4 mM (inactive).
For `Cc1ccc(C(=O)Nn2cnnc2)c(Cl)c1`, the Kd was > 4 mM (inactive).
For `CNC(=O)c1ccccc1N`, the Kd was > 4 mM (inactive).
For `NCc1csc(-c2ccccc2)n1`, the Kd was > 4 mM (inactive).
With `Fc1ccc(N2CCNCC2)cc1` the Kd was > 4 mM (inactive).
`Cc1cc(C(=O)Nc2ccc3c(c2)OCCO3)c(C)o1` was tested, and the Kd was > 4 mM (inactive).
`COc1cc(OC)c2c(c1)O[C@H](c1ccc(OC)c(OC)c1)[C@@H](O)C2` was tested, and the Kd was > 4 mM (inactive).
`CCSc1nnc(-c2ccccc2N)c(=O)[nH]1` was tested, and the Kd was > 4 mM (inactive).
In the case of `O=C(Nc1cccnc1)c1ccc(Br)s1`, the Kd is reported as > 4 mM (inactive).
In the case of `O=C1NC(=O)C(C(C[N+](=O)[O-])c2ccc(O)cc2)C(=O)N1` (stereo unspecified), the Kd is reported as > 4 mM (inactive).
`C=CC(C1=CC(=O)C=CC1=O)c1ccccc1` (stereo unspecified) was tested, and the Kd was > 4 mM (inactive).
In the case of `CCOC(=O)c1c(SC)nc(=O)[nH]c1C`, the Kd is reported as > 4 mM (inactive).
With `COc1ccc2cc1Oc1ccc(cc1)C[C@H]1c3c(cc4c(c3Oc3cc5c(cc3OC)CCN(C)[C@@H]5C2)OCO4)CCN1C` the Kd was > 4 mM (inactive).
`Nc1ccc(Cc2ccncc2)cc1` was tested, and the Kd was > 4 mM (inactive).
In the case of `O=C(Nc1nnc(-c2ccncc2)o1)c1cccs1`, the Kd is reported as > 4 mM (inactive).
`CC(C)CCCC(C)C1CCC2C3CC(=O)[C@H]4C[C@@H](O)CC[C@]4(C)C3CC[C@]12C` (stereo partly specified) was tested, and the Kd was > 4 mM (inactive).
In the case of `c1ccn(Cc2ccncc2)c1`, the Kd is reported as > 4 mM (inactive).
With `Cc1cc[n+](-c2nc([O-])sc2C=O)cc1` the Kd was > 4 mM (inactive).
With `O=C(O)CCC(=O)Nc1ccccn1` the Kd was > 4 mM (inactive).
With `O=C(O)CNS(=O)(=O)c1cccs1` the Kd was > 4 mM (inactive).
`NC(=O)C1CCN(C(=O)CN2CCc3ccccc32)CC1` was tested, and the Kd was > 4 mM (inactive).
In the case of `O=C(O)c1cc2ccccc2o1`, the Kd is reported as > 4 mM (inactive).
In the case of `S=C(NCC1CCCO1)NC1CC1` (stereo unspecified), the Kd is reported as > 4 mM (inactive).
`CNC(=O)C1CCCN(S(C)(=O)=O)C1` (stereo unspecified) was tested, and the Kd was > 4 mM (inactive).
For `S=C(c1ccc(N2CCOCC2)cc1)N1CCOCC1`, the Kd was > 4 mM (inactive).
In the case of `CCOc1ccc2ccccc2c1C(=O)N1CCOCC1`, the Kd is reported as > 4 mM (inactive).
With `Cn1[nH]c(C(F)(F)F)cc1=O` the Kd was > 4 mM (inactive).
With `CCN1C(=O)N(CO)C2C1N(C)C(=O)N2C` (stereo unspecified) the Kd was > 4 mM (inactive).
With `COc1cc2c(cc1OC)C1(O)C(=O)c3ccc(O)c(C(=O)O)c3OC1CO2` (stereo unspecified) the Kd was > 4 mM (inactive).
With `c1ccc(-n2nnnc2-n2cnc3ccccc32)cc1` the Kd was > 4 mM (inactive).
`COC(=O)c1c[nH]c2ccccc12` was tested, and the Kd was > 4 mM (inactive).
`CNC(C)[C@H](O)c1ccccc1` (stereo partly specified) was tested, and the Kd was > 4 mM (inactive).
In the case of `Cc1cc(=O)n2[nH]cnc2n1`, the Kd is reported as > 4 mM (inactive).
For `CC[C@H](CCC(C)[C@H]1CCC2C3CCC4C[C@@H](O)CC[C@]4(C)C3CC[C@@]21C)C(C)C` (stereo partly specified), the Kd was > 4 mM (inactive).
With `C[C@H]1CCCC(=O)CCC/C=C/c2cc(O)cc(O)c2C(=O)O1` the Kd was > 4 mM (inactive).
In the case of `COC(=O)c1ccc2nccnc2c1`, the Kd is reported as > 4 mM (inactive).
With `OC12CC3CC(CC(C3)C1)C2` the Kd was > 4 mM (inactive).
With `CC(=O)NC1=C(N(C)C)C(=O)c2ccccc2C1=O` the Kd was > 4 mM (inactive).
In the case of `C[C@@H]1CCC2[C@](C)(CO)[C@@H](O)CC[C@]2(C)[C@@]12CC[C@@](CO)(CCO)O2` (stereo partly specified), the Kd is reported as > 4 mM (inactive).
In the case of `Cc1cc(C(=O)NCc2cccs2)cs1`, the Kd is reported as > 4 mM (inactive).
For `O=C1C=CC2=C3c4cc(O)c(O)cc4CC3(O)COC2=C1O` (stereo unspecified), the Kd was > 4 mM (inactive).
In the case of `CC(=O)N1CCC(NC2CCCCCC2)CC1`, the Kd is reported as > 4 mM (inactive).
In the case of `CC1=C2C(=CO[C@H](C)[C@H]2C)C(=O)C(C(=O)O)=C1O`, the Kd is reported as > 4 mM (inactive).
For `CC(=O)OC1CCC2(C)C(=CC=C3C2CCC2(C)C3CCC2C(C)/C=C/C(C)C(C)C)C1(C)C` (stereo unspecified), the Kd was > 4 mM (inactive).
For `O=c1ccc2nc3ccccc3c(=O)n2[nH]1`, the Kd was > 4 mM (inactive).
In the case of `c1cncc(C2CCCCN2)c1` (stereo unspecified), the Kd is reported as > 4 mM (inactive).
With `CCCn1cnn2c(=O)cc(C)nc12` the Kd was > 4 mM (inactive).
`O=C(NCC1CCNCC1)c1ccccn1` was tested, and the Kd was > 4 mM (inactive).
`CC(=O)Nc1ccc2c(c1)CCC2=O` was tested, and the Kd was > 4 mM (inactive).
For `COc1c(O)cc(O)cc1O`, the Kd was > 4 mM (inactive).
For `CC(=O)c1cccc(NC(=O)NN2CCOCC2)c1`, the Kd was > 4 mM (inactive).
In the case of `OCCN1CCN(C(=S)c2ccc(Cl)cc2)CC1`, the Kd is reported as > 4 mM (inactive).
For `O=C(O)C(CO)c1ccccc1` (stereo unspecified), the Kd was > 4 mM (inactive).
`O=C(Nc1cccnc1)c1c(F)cccc1F` was tested, and the Kd was > 4 mM (inactive).
For `COc1ccc(Cl)cc1-c1n[nH]c(=S)n1C`, the Kd was > 4 mM (inactive).
In the case of `CCCCn1c(S(=O)(=O)O)nc2ccccc21`, the Kd is reported as > 4 mM (inactive).
In the case of `O=C(O)Cc1noc2ccccc12`, the Kd is reported as > 4 mM (inactive).
For `C/C=C(\C)c1nnc(NC(=O)C(C)C)s1`, the Kd was > 4 mM (inactive).
With `CN(C)C(=O)Oc1cccc(-c2nnco2)c1` the Kd was > 4 mM (inactive).
`O=S1(=O)CCC(NCc2ccccc2)C1` (stereo unspecified) was tested, and the Kd was > 4 mM (inactive).
For `O=C(O)C1CN2CCC1CC2` (stereo unspecified), the Kd was > 4 mM (inactive).
In the case of `CC(=O)O[C@H]1CC[C@@]2(C)C(C[C@@H](OC(C)=O)[C@@]3(C)C4=CC(=O)O[C@@H](c5ccoc5)[C@]4(C)CCC23)C1(C)C` (stereo partly specified), the Kd is reported as > 4 mM (inactive).
`NC(=O)C1CCN(CN2C(=O)c3ccccc3C2=O)CC1` was tested, and the Kd was > 4 mM (inactive).
For `OCCCc1nc2ccccc2[nH]1`, the Kd was > 4 mM (inactive).
For `Cc1ccccc1N1CCN(C(=O)C2CCCCC2)CC1`, the Kd was > 4 mM (inactive).
With `O=S1(=O)NC(=NCc2ccccc2)c2ccccc21` the Kd was > 4 mM (inactive).
`CC(=O)Oc1ccccc1N1C(=O)C=CC1=O` was tested, and the Kd was > 4 mM (inactive).
`O=C(O)CCN1CCOCC1` was tested, and the Kd was > 4 mM (inactive).
In the case of `COc1ccc2c(c1O)-c1c(OC)c(OC)cc3c1[C@H](C2)N(C)CC3`, the Kd is reported as > 4 mM (inactive).
In the case of `C=C(C)C1CC=C(CO)CC1` (stereo unspecified), the Kd is reported as > 4 mM (inactive).
With `Nc1cccc(S(N)(=O)=O)c1` the Kd was > 4 mM (inactive).
For `NC(=O)C1CCN(c2ccc(Cl)nn2)CC1`, the Kd was > 4 mM (inactive).
`O=c1[nH]c2ccccc2c(=O)n1CCCO` was tested, and the Kd was > 4 mM (inactive).
In the case of `NC1=NC(=O)/C(=C/c2cccs2)S1`, the Kd is reported as > 4 mM (inactive).
For `NC(=O)CSc1ccccn1`, the Kd was > 4 mM (inactive).
For `O=C(O)C1(O)C[C@@H](O)C(O)[C@H](O)C1` (stereo partly specified), the Kd was > 4 mM (inactive).
For `Cc1nc2ccc(NC(=O)N3CCSCC3)cc2s1`, the Kd was > 4 mM (inactive).
`CN1CCn2c1nc(N1CCOCC1)nc2=O` was tested, and the Kd was > 4 mM (inactive).
For `OCc1ccccc1O[C@@H]1O[C@H](CO)[C@@H](O)[C@H](O)[C@H]1O`, the Kd was > 4 mM (inactive).
With `COc1cc(OC)c2c(c1Cl)OC1(C2=O)C(O)=CC(=O)CC1C` (stereo unspecified) the Kd was > 4 mM (inactive).
With `Cn1c(=O)c2c(n(C)c1=O)=NC1(CCCCC1)N=2` the Kd was > 4 mM (inactive).
In the case of `CC[C@H]1CN2CCC1C[C@@H]2[C@@H](O)c1ccnc2ccc(OC)cc12` (stereo partly specified), the Kd is reported as > 4 mM (inactive).
In the case of `Cc1nc2ccc(C(=O)O)cc2nc1C`, the Kd is reported as > 4 mM (inactive).
`NC1=C([N+](=O)[O-])C(=O)c2ccccc21` was tested, and the Kd was > 4 mM (inactive).
`NCc1c[nH]c2ccccc12` was tested, and the Kd was > 4 mM (inactive).
`CCOC(=O)c1c(C)cc(O)cc1O` was tested, and the Kd was > 4 mM (inactive).
With `Cc1cc(=O)c2c(O)c(C)c(O)cc2o1` the Kd was > 4 mM (inactive).
For `Cn1nccc1N`, the Kd was > 4 mM (inactive).
With `CN1CCN(C(=O)c2cc(-c3ccccc3)on2)CC1` the Kd was > 4 mM (inactive).
